Test results: ChEMBL document CHEMBL5620375, “Tetrahydrobenzo[h]quinoline derivatives as a novel chemotype for dual antileishmanial-antimalarial activity graced with antitubercular activity: Design, synthesis and biological evaluation” (Eur J Med Chem, 2023)
Values after ≈ are worked out from the molar mass of the structure shown.

System: Mycobacterium tuberculosis
Test: Antitubercular activity against multidrug-resistant Mycobacterium tuberculosis ATCC 35822 assessed as inhibition of bacterial growth by microplate alamar blue assay
Format: functional

`COc1ccc(OC)c(-c2c3c([nH]c(=O)c2C#N)-c2ccccc2CC3)c1` was tested, and the MIC was 21.8 µM (≈ 7.82 µg/mL).
For `N#Cc1c(-c2ccc(Cl)cc2Cl)c2c([nH]c1=O)-c1ccccc1CC2`, the MIC was 85.4 µM (≈ 31.4 µg/mL).
For `COc1ccc(-c2c3c([nH]c(=O)c2C#N)-c2ccccc2CC3)cc1O`, the MIC was 45.4 µM (≈ 15.6 µg/mL).
Compound `COc1ccccc1-c1c2c([nH]c(=O)c1C#N)-c1ccccc1CC2` has an MIC of 11.9 µM (≈ 3.9 µg/mL).
`N#Cc1c(O)nc2c(c1-c1cccc([N+](=O)[O-])c1)CCc1ccccc1-2` showed an MIC of 22.8 µM (≈ 7.82 µg/mL).
